Legend:
[1] = test system: primary human T-cells; experiment: Proliferation assay (5 days, CellTiter-Glo, CD3-stimulated T-cells); type: cell-based; conditions: for Emax proliferation (% activation): CD3 condition, normalised to DMSO (neutral) and 20 μM reference compound A1 = 100%; for EC50: Homo sapiens, T-cell, 120 h, CD3-stimulated primary human T-cells, 5 days, CellTiter-Glo, fitted sigmoidal curve, read-out: Tcell Proliferation CD3 EC50
Procedure, shortened: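 Proliferation read-out: ATP luminescence (CellTiter-Glo 2.0) at day 5 in expanded primary human T-cells on CD3 antibody-coated plates, with PBS-only plates as a counter screen. Compounds in 5–6 pt series (factor 3.333, top 20 or 10 μM final). Values are normalized to DMSO (neutral) and 20 μM reference A1 (100%), from sigmoidal fits.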

[2] = target: T1, DGKα (hDGKalpha(1-735)-N-His) (Homo sapiens, UniProt P23743); experiment: In vitro DGK inhibition assay, DGKalpha ADP Glo (in house); type: biochemical; conditions: 4 nM DGKα, 25 μM ATP, 125 uM DLG in liposomes, 1 hour reaction
T1 construct: hDGKalpha(1-735)-N-His; His (N); made in house; host or cells: Sf21 insect cells (baculovirus)
Procedure: DGKα and ζ kinases use ATP to phosphorylate the substrate 1,2-dilauroyl-sn-glycerol (DLG, incorporated in the liposomes). ATP is converted to ADP as a result of this enzymatic reaction. After the kinase reaction, an ATP-depletion reagent is added to terminate the kinase reaction and deplete any remaining ATP, leaving only ADP. Second, a detection reagent is added to simultaneously convert ADP to ATP and allow the newly synthesized ATP to be converted to light using a coupled luciferase/luciferin reaction.
Full length DGKα and ζ were expressed in Sf21 insect cells by infecting the cells with the baculovirus stock at MOI of 2. Purification of both enzymes was performed as previously described by Takahashi et al., PeerJ, 2018 (Takahashi, D.; Sakane, F. Expression and purification of human diacylglycerol 5 kinase alpha from baculovirus-infected insect cells for structural studies. PeerJ2018, 6, No. e5449).
A concentrated liposome solution was prepared in assay buffer without DTT and BSA: 2 mM of DLG in 21 mM of total liposome (2 mM DLG/8 mM PS/11 mM PC). The reaction mixtures contain the assay buffer with a final DLG concentration of 125 uM ATP concentrations of 25 μM (for DGKA assay) or 50 μM (for DGKZ assay). The reactions were started by addition of DGK α and ζ kinases at 4 nM and 2 nM final concentrations, respectively. After 1 hour reaction, the amount of ADP formed was detected with the ADP-Glo kinase assay (Promega) according to the manufacturer instructions. Compounds were added in 11-points dose response, starting at […], 1:3 dilutions, with a final DMSO concentration of 2%. The multidrop combi was used as a liquid handler and luminescence was read with 0.5 s by the envision reader (PE).

[3] = target: T2, DGKζ (hDGKzeta(1-928)-N-His) (Homo sapiens, UniProt Q13574); experiment: In vitro DGK inhibition assay, DGKzeta ADP Glo (in house); type: biochemical; conditions: 2 nM DGKζ, 50 μM ATP, 125 uM DLG in liposomes, 1 hour reaction
T2 construct: hDGKzeta(1-928)-N-His; His (N); made in house; host or cells: Sf21 insect cells (baculovirus)
Procedure, shortened: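 ADP-Glo luminescence measured ADP formed over 1 h by Sf21-expressed full-length human enzymes: DGKα at 4 nM with 25 µM ATP, DGKζ at 2 nM with 50 µM ATP, both on 125 µM DLG in PS/PC liposomes. Dose–response used 11 threefold dilutions at 2% final DMSO.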

T1 sequence (P23743 whole entry): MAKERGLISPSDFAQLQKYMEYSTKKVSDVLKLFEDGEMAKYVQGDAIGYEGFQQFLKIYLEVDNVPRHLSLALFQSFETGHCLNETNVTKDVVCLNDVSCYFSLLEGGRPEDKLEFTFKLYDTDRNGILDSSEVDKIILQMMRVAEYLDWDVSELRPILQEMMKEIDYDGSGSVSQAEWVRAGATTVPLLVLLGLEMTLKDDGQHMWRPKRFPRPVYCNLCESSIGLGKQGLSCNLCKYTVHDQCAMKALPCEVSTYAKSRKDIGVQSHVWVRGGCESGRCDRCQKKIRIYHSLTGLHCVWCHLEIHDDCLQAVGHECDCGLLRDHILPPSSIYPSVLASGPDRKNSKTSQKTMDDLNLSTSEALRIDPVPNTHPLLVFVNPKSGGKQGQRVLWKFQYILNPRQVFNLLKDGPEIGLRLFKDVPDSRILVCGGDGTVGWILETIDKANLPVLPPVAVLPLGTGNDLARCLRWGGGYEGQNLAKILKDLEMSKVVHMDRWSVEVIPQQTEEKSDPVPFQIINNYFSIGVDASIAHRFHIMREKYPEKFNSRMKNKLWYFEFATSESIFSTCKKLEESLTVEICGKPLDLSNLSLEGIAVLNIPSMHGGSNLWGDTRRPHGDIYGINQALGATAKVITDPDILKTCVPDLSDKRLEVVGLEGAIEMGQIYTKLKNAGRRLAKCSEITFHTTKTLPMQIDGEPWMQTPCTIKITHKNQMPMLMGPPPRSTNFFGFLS
T2 sequence (Q13574 whole entry): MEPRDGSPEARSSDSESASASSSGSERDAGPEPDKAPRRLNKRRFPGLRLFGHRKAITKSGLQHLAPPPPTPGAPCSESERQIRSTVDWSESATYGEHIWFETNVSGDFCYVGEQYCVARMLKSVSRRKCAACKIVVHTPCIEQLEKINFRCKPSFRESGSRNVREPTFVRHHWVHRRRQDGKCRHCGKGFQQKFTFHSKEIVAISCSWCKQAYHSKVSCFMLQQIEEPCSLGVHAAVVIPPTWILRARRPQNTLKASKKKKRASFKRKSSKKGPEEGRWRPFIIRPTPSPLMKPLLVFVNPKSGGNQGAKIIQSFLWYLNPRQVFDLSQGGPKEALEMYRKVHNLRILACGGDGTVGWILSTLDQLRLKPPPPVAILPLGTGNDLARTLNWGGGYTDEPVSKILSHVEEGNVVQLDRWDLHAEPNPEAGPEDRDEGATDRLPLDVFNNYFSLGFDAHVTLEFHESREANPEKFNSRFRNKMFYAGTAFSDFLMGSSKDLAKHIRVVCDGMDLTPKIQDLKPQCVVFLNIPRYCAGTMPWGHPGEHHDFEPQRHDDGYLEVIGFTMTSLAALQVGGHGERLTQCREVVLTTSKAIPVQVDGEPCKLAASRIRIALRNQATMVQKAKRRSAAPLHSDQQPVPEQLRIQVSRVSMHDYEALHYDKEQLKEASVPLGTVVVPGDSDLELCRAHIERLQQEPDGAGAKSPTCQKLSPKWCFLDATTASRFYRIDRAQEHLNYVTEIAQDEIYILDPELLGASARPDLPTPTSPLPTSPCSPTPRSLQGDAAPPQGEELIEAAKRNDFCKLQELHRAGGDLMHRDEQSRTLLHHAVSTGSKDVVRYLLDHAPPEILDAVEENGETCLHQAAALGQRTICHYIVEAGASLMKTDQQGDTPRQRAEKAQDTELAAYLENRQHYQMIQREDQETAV

Row | Compound | IC50 [2] [nM] | IC50 [3] [nM] | Emax proliferation (% activation) [1] [% activation] | EC50 [1] [nM]
1 | N[C@H]1CS(=O)(=O)c2cc(F)c(-c3noc(C4(N)COC4)n3)cc2N(Cc2ccc(-c3noc(C(F)(F)F)n3)cc2)C1=O [Example 9, (3R)-3-amino-7-[5-(3-aminooxetan-3-yl)-1,2,4-oxadiazol-3-yl]-8-fluoro-1,1-dioxo-5-[[4-[5-(trifluoromethyl)-1,2,4-oxadiazol-3-yl]phenyl]methyl]-2,3-dihydro-1λ^6,5-benzothiazepin-4-one] | 3290 | 468 | 163 | 506
2 | N[C@H]1CS(=O)(=O)c2cc(F)c(-c3noc(C4(N)COC4)n3)cc2N(Cc2ccc(-c3ccc(C(F)(F)F)cn3)cc2)C1=O [Example 10, (3R)-3-amino-7-[5-(3-aminooxetan-3-yl)-1,2,4-oxadiazol-3-yl]-8-fluoro-1,1-dioxo-5-[[4-[5-(trifluoromethyl)-2-pyridyl]phenyl]methyl]-2,3-dihydro-1λ^6,5-benzothiazepin-4-one] | 5160 | 282 | 133 | 1920
3 | N[C@H]1CS(=O)(=O)c2cc(F)c(-c3noc(N4CCOC5(CC5)C4)n3)cc2N(Cc2ccc(-c3ccc(C(F)(F)F)cc3)nc2)C1=O [Example 11, (3R)-3-amino-8-fluoro-7-[5-(4-oxa-7-azaspiro[2.5]octan-7-yl)-1,2,4-oxadiazol-3-yl]-1,1-dioxo-5-[[6-[4-(trifluoromethyl)phenyl]-3-pyridyl]methyl]-2,3-dihydro-1λ^6,5-benzothiazepin-4-one] | > 6250 | 690 | 136 | 1870
4 | N[C@H]1CS(=O)(=O)c2cc(F)c(-c3noc(N4CCOC(F)(F)C4)n3)cc2N(Cc2ccc(-c3noc(C(F)(F)F)n3)nc2)C1=O [Example 12, (3R)-3-amino-7-[5-(2,2-difluoromorpholin-4-yl)-1,2,4-oxadiazol-3-yl]-8-fluoro-1,1-dioxo-5-[[6-[5-(trifluoromethyl)-1,2,4-oxadiazol-3-yl]-3-pyridyl]methyl]-2,3-dihydro-1λ^6,5-benzothiazepin-4-one] | 3040 | 169 | 125 | 3880
5 | N[C@H]1CS(=O)(=O)c2cc(F)c(-c3noc(N4CCOC(F)(F)C4)n3)cc2N(Cc2ccc(-c3ccc(C(F)(F)F)cc3)nc2)C1=O [Example 13, (3R)-3-amino-7-[5-(2,2-difluoromorpholin-4-yl)-1,2,4-oxadiazol-3-yl]-8-fluoro-1,1-dioxo-5-[[6-[4-(trifluoromethyl)phenyl]-3-pyridyl]methyl]-2,3-dihydro-1λ^6,5-benzothiazepin-4-one] | > 62500 | 769 | 84 | 1080
6 | N[C@H]1CS(=O)(=O)c2cc(F)c(-c3noc(N4CCOC5(CC5)C4)n3)cc2N(Cc2ccc(-c3noc(C(F)(F)F)n3)nc2)C1=O [Example 14, (3R)-3-amino-8-fluoro-7-[5-(4-oxa-7-azaspiro[2.5]octan-7-yl)-1,2,4-oxadiazol-3-yl]-1,1-dioxo-5-[[6-[5-(trifluoromethyl)-1,2,4-oxadiazol-3-yl]-3-pyridyl]methyl]-2,3-dihydro-1λ^6,5-benzothiazepin-4-one] | 36900 | 144 | 96 | 3850
7 | N#CC1(c2nc(-c3cc4c(cc3F)S(=O)(=O)C[C@H](N)C(=O)N4Cc3ccc(-c4ccc(C(F)(F)F)cn4)cc3)no2)CC1 [Example 17] | 3210 | 464 | 167 | 50.1
8 | N[C@H]1CS(=O)(=O)c2cc(F)c(-c3noc(C4(CO)CCCO4)n3)cc2N(Cc2ccc(-c3noc(C(F)(F)F)n3)cc2)C1=O (stereo partly drawn) [Example 18, (3R)-3-amino-8-fluoro-7-[5-[2-(hydroxymethyl)tetrahydrofuran-2-yl]-1,2,4-oxadiazol-3-yl]-1,1-dioxo-5-[[4-[5-(trifluoromethyl)-1,2,4-oxadiazol-3-yl]phenyl]methyl]-2,3-dihydro-1λ^6,5-benzothiazepin-4-one] | 3870 | 151 | 275 | 445

Further compounds by falling IC50 [2], results first:

Row | IC50 [2] [nM] | IC50 [3] [nM] | Compound | Emax proliferation (% activation) [1] [% activation] | EC50 [1] [nM]
9 | 18200 | 783 | CC(C)(C)c1nnc(-c2ccc(CN3C(=O)[C@@H](N)CS(=O)(=O)c4ccc(-c5nnc(C(C)(C)C)o5)cc43)cc2)o1 [Example 19, (3R)-3-amino-7-(5-tert-butyl-1,3,4-oxadiazol-2-yl)-5-[[4-(5-tert-butyl-1,3,4-oxadiazol-2-yl)phenyl]methyl]-1,1-dioxo-2,3-dihydro-1λ^6,5-benzothiazepin-4-one] | 100 | 3610
10 | 10300 | 1280 | CC1(Nc2nnc(-c3cc4c(cc3F)S(=O)(=O)C[C@H](N)C(=O)N4Cc3ccc(-c4noc(C(F)(F)F)n4)cc3)o2)CC(F)(F)C1 [Example 3, (3R)-3-amino-7-[5-[(3,3-difluoro-1-methyl-cyclobutyl)amino]-1,3,4-oxadiazol-2-yl]-8-fluoro-1,1-dioxo-5-[[4-[5-(trifluoromethyl)-1,2,4-oxadiazol-3-yl]phenyl]methyl]-2,3-dihydro-1λ^6,5-benzothiazepin-4-one] | 165 | 795
11 | 7030 | 137 | COc1ccc(-c2ccc(CN3C(=O)[C@@H](N)CS(=O)(=O)c4cc(F)c(-c5noc(C6(N)COC6)n5)cc43)cc2)cc1 [Example 8, (3R)-3-amino-7-[5-(3-aminooxetan-3-yl)-1,2,4-oxadiazol-3-yl]-8-fluoro-5-[[4-(4-methoxyphenyl)phenyl]methyl]-1,1-dioxo-2,3-dihydro-1λ^6,5-benzothiazepin-4-one] | 143 | 3110
12 | 3410 | 127 | N[C@H]1CS(=O)(=O)c2cc(F)c(-c3nnc(N4CCOC5(CC5)C4)o3)cc2N(Cc2ccc(-c3noc(C(F)(F)F)n3)cc2)C1=O [Example 4, (3R)-3-amino-8-fluoro-7-[5-(4-oxa-7-azaspiro[2.5]octan-7-yl)-1,3,4-oxadiazol-2-yl]-1,1-dioxo-5-[[4-[5-(trifluoromethyl)-1,2,4-oxadiazol-3-yl]phenyl]methyl]-2,3-dihydro-1λ^6,5-benzothiazepin-4-one] | 207 | 83.1
13 | 1740 | 281 | N#CC1(c2nc(-c3cc4c(cc3F)S(=O)(=O)C[C@H](N)C(=O)N4Cc3ccc(-c4noc(C(F)(F)F)n4)cc3)no2)CC1 [Example 16, 1-[3-[(3R)-3-amino-8-fluoro-1,1,4-trioxo-5-[[4-[5-(trifluoromethyl)-1,2,4-oxadiazol-3-yl]phenyl]methyl]-2,3-dihydro-1λ^6,5-benzothiazepin-7-yl]-1,2,4-oxadiazol-5-yl]cyclopropanecarbonitrile] | 228 | 115
14 | 635 | 68 | N[C@H]1CS(=O)(=O)c2cc(F)c(-c3nnc(N4CCC(F)(F)CC4)o3)cc2N(Cc2ccc(-c3noc(C(F)(F)F)n3)cc2)C1=O [Example 5, (3R)-3-amino-7-[5-(4,4-difluoro-1-piperidyl)-1,3,4-oxadiazol-2-yl]-8-fluoro-1,1-dioxo-5-[[4-[5-(trifluoromethyl)-1,2,4-oxadiazol-3-yl]phenyl]methyl]-2,3-dihydro-1λ^6,5-benzothiazepin-4-one] | 200 | 120

From US20260138976A1 (Hoffmann-La Roche Inc., priority 2022, published 2026)
